The nature of this data set: Stability of oxygen-18 labeled organic acids in the sample preparation procedure (L/L extraction, MTBSTFA derivatization, GC/MS). Conditions: for stability of the labeled acid (in words): prior to L/L extraction, during an 80 minute and during a 120 minute L/L extraction.
[1] abbreviates: Before L/L extraction, in diluted normal human urine, pH 1, ethyl-acetate extraction, GC/MS [M-57]+.

Take `CC(C)CC(O)C(=O)O` (stereo not drawn) [2-hydroxy isocaproic acid]: the “stability of the labeled acid (in words)” value was “exhibited stability”. For the setting “Before L/L extraction”, this molecule had a Single labeled of 15.6% and an Unlabeled of 0.4%. For the same molecule, under setting [1], the Double labeled turned out to be 84%. Under “L/L 80 min. extraction”, this molecule yielded a Double labeled of 83%, a Single labeled of 16.5% and an Unlabeled of 0.5%. Under “L/L 120 min. extraction”, this molecule came in with a Double labeled of 79%, a Single labeled of 20.6% and an Unlabeled of 0.4%.

With `CC(O)C(C)C(=O)O` (stereo not drawn) [3-hydroxy-2-methyl butyric acid], the “stability of the labeled acid (in words)” value is listed as “exhibited stability”. Under “Before L/L extraction”, this molecule gave a Single labeled of 14.9% and an Unlabeled of 0.1%. Under setting [1], this molecule had a Double labeled of 85%. Besides, for the setting “L/L 80 min. extraction”, the Double labeled was 85%, the Single labeled came out at 14.9% and the Unlabeled was determined as 0.1%. Moreover, under “L/L 120 min. extraction”, the Double labeled came out at 85%, the Single labeled worked out at 14.7% and the Unlabeled turned out to be 0.3%.

For the molecule `O=C(O)Cc1ccc(O)cc1` [4-hydroxy phenyl acetic acid], the “stability of the labeled acid (in words)” value was “exhibited stability”. For the same molecule, for the setting “Before L/L extraction”, the Single labeled amounted to 15.5% and the Unlabeled is recorded as 0.8%. The Double labeled under setting [1] worked out at 83.7%. Where the note is “L/L 80 min. extraction”, this molecule came in with a Double labeled of 81%, a Single labeled of 15.8% and an Unlabeled of 3.2%. Where the note is “L/L 120 min. extraction”, this molecule gave a Double labeled of 78%, a Single labeled of 19.7% and an Unlabeled of 2.3%.

For `CCCC(=O)NCC(=O)O` [Oxygen-18-Containing Butyryl Glycine, Butyryl glycine], the “stability of the labeled acid (in words)” value was “exhibited stability”. Under “Before L/L extraction”, this molecule gave a Single labeled of 14.5% and an Unlabeled of 0.5%. In addition, the Double labeled under setting [1] is reported as 85%. Under “L/L 80 min. extraction”, this molecule showed a Double labeled of 85%, a Single labeled of 14.8% and an Unlabeled of 0.2%. For the setting “L/L 120 min. extraction”, this molecule had a Double labeled of 83%, a Single labeled of 16.2% and an Unlabeled of 0.8%.

For `CC=CC(=O)NCC(=O)O` [Oxygen-18-Containing Crotonyl Glycine, Crotonyl glycine], the “stability of the labeled acid (in words)” value is recorded as “exhibited stability”. Where the note is “Before L/L extraction”, this molecule registered a Single labeled of 15.5% and an Unlabeled of 0.1%. The Double labeled under setting [1] is 84%. Under “L/L 80 min. extraction”, this molecule yielded a Double labeled of 85%, a Single labeled of 14.8% and an Unlabeled of 0.2%. Besides, for the setting “L/L 120 min. extraction”, the Double labeled is reported as 81%, the Single labeled is on record as 17.4% and the Unlabeled is reported as 1.6%.

As to `O=C(O)CCCC(=O)O` [Oxygen-18-Containing Glutaric Acid, Glutaric acid], the “stability of the labeled acid (in words)” value was “exhibited stability”. Further, under “Before L/L extraction”, the “Oxygen 18 × 1” value came to 0.4%, the “Oxygen 18 × 2” value is listed as 3.5%, the “Oxygen 18 × 3” value is given as 27% and the “Oxygen 18 × 4” value was determined as 69%. The molecule further yielded an Unlabeled (Before L/L extraction) of 0.1%. In addition, where the note is “L/L 80 min. extraction”, the “Oxygen 18 × 1” value was 0.8%, the “Oxygen 18 × 2” value is on record as 3%, the “Oxygen 18 × 3” value is on record as 28% and the “Oxygen 18 × 4” value is 68%. The molecule also yielded an Unlabeled (L/L 80 min. extraction) of 0.2%. Also, for the setting “L/L 120 min. extraction”, the “Oxygen 18 × 1” value is reported as 0.8%, the “Oxygen 18 × 2” value came to 4%, the “Oxygen 18 × 3” value came out at 30% and the “Oxygen 18 × 4” value is 65%. Where the note is “L/L 120 min. extraction”, this molecule had an Unlabeled of 0.2%.

As for `O=C(O)C(O)CO` (stereo not drawn) [Oxygen-18-Containing Glyceric Acid, Glyceric acid], the “stability of the labeled acid (in words)” value is reported as “exhibited stability”. Where the note is “Before L/L extraction”, this molecule displayed a Single labeled of 13% and an Unlabeled of 0%. In addition, the Double labeled under setting [1] stood at 87%. For the setting “L/L 80 min. extraction”, this molecule had a Double labeled of 84%, a Single labeled of 15.5% and an Unlabeled of 0.5%. Under “L/L 120 min. extraction”, the Double labeled was 81%, the Single labeled stood at 17.6% and the Unlabeled came to 2.4%.

In the case of `CC(=O)CC(=O)CCC(=O)O` [Oxygen-18-Containing Succinyacetone, Succinyacetone], the “stability of the labeled acid (in words)” value is on record as “exhibited stability”. In addition, under “Before L/L extraction”, the “Oxygen 18 × 1” value amounted to 0.2%, the “Oxygen 18 × 2” value was 2.8%, the “Oxygen 18 × 3” value is recorded as 25% and the “Oxygen 18 × 4” value was found to be 72%. The Unlabeled (Before L/L extraction) amounted to 0%. Also, for the setting “L/L 80 min. extraction”, the “Oxygen 18 × 1” value is given as 0.2%, the “Oxygen 18 × 2” value is listed as 2.8%, the “Oxygen 18 × 3” value amounted to 27% and the “Oxygen 18 × 4” value is reported as 70%. The Unlabeled (L/L 80 min. extraction) was 0%. Where the note is “L/L 120 min. extraction”, the “Oxygen 18 × 1” value is 0.8%, the “Oxygen 18 × 2” value is listed as 3%, the “Oxygen 18 × 3” value was found to be 29% and the “Oxygen 18 × 4” value turned out to be 67%. For the setting “L/L 120 min. extraction”, this molecule registered an Unlabeled of 0.2%.

As for `CCC(O)C(=O)O` (stereo not drawn) [oxygen-18-containing 2-OH Butyric Acid, 2-hydroxy-butyric acid], the “stability of the labeled acid (in words)” value was “exhibited stability”. In addition, where the note is “Before L/L extraction”, the Single labeled is given as 15% and the Unlabeled is recorded as 1%. Under setting [1], this molecule displayed a Double labeled of 84%. For the same molecule, where the note is “L/L 80 min. extraction”, the Double labeled was 83%, the Single labeled is 17.4% and the Unlabeled was 0.11%. Under “L/L 120 min. extraction”, the Double labeled is 80%, the Single labeled stood at 19.7% and the Unlabeled is listed as 0.3%.

The values above are taken from patent US7993931B1, “Oxygen-18 labeled organic acids and use in diagnosing metabolic disorders” (Quest Diagnostics Investments Incorporated, priority 2003, dated 2011).
